Assay results published in US12419861B2, “Method for preventing and/or treating chronic traumatic encephalopathy-i” (EUSTRALIS PHARMACEUTICALS LIMITED (trading as Pressura …, priority 2013, dated 2025).

Test system: tau phosphorylation
Test: Tau phosphorylation after concussive injury in the rat (rodent model of concussion, FIG. 3)
Type: in vivo
Settings: NK1 receptor antagonist administered at 30 min after induction of injury, assessed at 3 day time point, compared with injured untreated animals
From the text: Note that concussive injury in the rat causes extensive tau phosphorylation (C,D) by 3 days after the concussive event compared to non-injured animals (A,B). […] Concussion results in perivascular substance P release Having established that hyperphosphorylated tau accumulates perivascularly following concussive injury, we used an animal model of concussion to investigate whether concussion causes perivascular release of substance P. We developed a rodent model of concussion to replicate the concussive event (Donkin et al., 2004, 7th International Neurotrauma Symposium, pp 75-78, Medimond Publishers, Bologna, Italy) and subsequently determined whether substance P was released after such an event. There was a clear increase in brain perivascular substance P immunoreactivity after the concussive event (FIG. 2). […] Administration of a NK1 receptor antagonist prevents tau phosphorylation Having shown that mechanical injury causes release of substance P after concussive injury, we then investigated whether a substance P NK1 receptor antagonist reduces tau hyperphosphorlation after concussive injury. […] Note that concussive injury in the rat causes extensive tau phosphorylation (C,D) by 3 days after the concussive event compared to non-injured animals (A,B). […] Thus, administration of an NK1 receptor antagonist prevents tau hyperphosphorylation and thus prevents the development of CTE.

## CC(=O)N[C@@H](Cc1c[nH]c2ccccc12)C(=O)O [n-acetyl-L-tryptophan, N-acetyl-L-tryptophan]
  effect on tau phosphorylation after concussive injury: almost complete inhibition of tau phosphorylation
